Experiment: Stability study of triheptanoin on storage (acid value, diester impurities, purity by GC and/or HPLC)
Type: physicochemical
Description: The stability data of the present invention at different stability condition(s) from initial to up to 6 (six) months is described below in Table-I: As shown in Table-I, two batches (Example 16 & Example 17) of triheptanoin prepared by the present method with acid values of […] about 0.2 mg KOH/gm were studied for stability. The samples were kept at 25° C./60% RH, 40° C./75% RH for up to 6 months and at 50° C. for up to 3 months. During the stability study, the inventors of the present invention have focused on % of 1,2-Diester Impurity, % of 1,3-Diester Impurity and purity of triheptanoin.

[1] = 25° C./60% RH, 3 M, listed as Example 17
[2] = 25° C./60% RH, 6 M, listed as Example 17
[3] = 25° C./60% RH, 40° C./75% RH up to 6 months, 50° C. up to 3 months, acid value greater than about 0.2 mg KOH/gm
[4] = 40° C./75% RH, 1 M, listed as Example 17
[5] = 40° C./75% RH, 2 M, listed as Example 17
[6] = 40° C./75% RH, 3 M, listed as Example 17
[7] = 40° C./75% RH, 6 M, listed as Example 17
[8] = 50° C., 1 M, listed as Example 17
[9] = 50° C., 2 M, listed as Example 17
[10] = 50° C., 3 M, listed as Example 17

1,2 Diester Impurity (NMT 0.05%) (25° C./60% RH, 1 M): 0.004% | 1,3 Diester Impurity (NMT 0.05%) (25° C./60% RH, 1 M): 0.002% | Acid value (25° C./60% RH, 1 M): 0.24 mg KOH/gm | Triheptanoin purity (25° C./60% RH, 1 M): 99.83% | Triheptanoin purity (25° C./60% RH, 1 M, listed as Example 17): 99.82% | 1,2 Diester Impurity (NMT 0.05%) (25° C./60% RH, 3 M): 0.007% | 1,3 Diester Impurity (NMT 0.05%) (25° C./60% RH, 3 M): 0.002% | Acid value (25° C./60% RH, 3 M): 0.23 mg KOH/gm | Triheptanoin purity (25° C./60% RH, 3 M): 99.82% | 1,2 Diester Impurity (NMT 0.05%) [1]: 0.004% | 1,3 Diester Impurity (NMT 0.05%) [1]: 0.003% | Acid value [1]: 0.22 mg KOH/gm | Triheptanoin purity [1]: 99.84% | 1,2 Diester Impurity (NMT 0.05%) (25° C./60% RH, 6 M): 0.005% | 1,3 Diester Impurity (NMT 0.05%) (25° C./60% RH, 6 M): 0.009% | Acid value (25° C./60% RH, 6 M): 0.27 mg KOH/gm | Triheptanoin purity (25° C./60% RH, 6 M): 99.81% | 1,2 Diester Impurity (NMT 0.05%) [2]: 0.003% | 1,3 Diester Impurity (NMT 0.05%) [2]: 0.004% | Triheptanoin purity [2]: 99.82% | 1,2-Diester and 1,3-Diester impurities during the storage [3]: not increasing | assay potency of triheptanoin during the storage [3]: maintained | purity of triheptanoin during storage as measured by GC and/or HPLC [3]: greater than 99.7% | 1,2 Diester Impurity (NMT 0.05%) (40° C./75% RH, 1 M): 0.005% | 1,3 Diester Impurity (NMT 0.05%) (40° C./75% RH, 1 M): 0.003% | Acid value (40° C./75% RH, 1 M): 0.24 mg KOH/gm | Triheptanoin purity (40° C./75% RH, 1 M): 99.83% | 1,2 Diester Impurity (NMT 0.05%) [4]: 0.004% | 1,3 Diester Impurity (NMT 0.05%) [4]: 0.004% | Triheptanoin purity [4]: 99.82% | 1,2 Diester Impurity (NMT 0.05%) (40° C./75% RH, 2 M): 0.008% | 1,3 Diester Impurity (NMT 0.05%) (40° C./75% RH, 2 M): 0.005% | Acid value (40° C./75% RH, 2 M): 0.24 mg KOH/gm | Triheptanoin purity (40° C./75% RH, 2 M): 99.78% | 1,2 Diester Impurity (NMT 0.05%) [5]: 0.006% | 1,3 Diester Impurity (NMT 0.05%) [5]: 0.003% | Acid value [5]: 0.25 mg KOH/gm | Triheptanoin purity [5]: 99.81% | 1,2 Diester Impurity (NMT 0.05%) (40° C./75% RH, 3 M): 0.013% | 1,3 Diester Impurity (NMT 0.05%) (40° C./75% RH, 3 M): 0.007% | Acid value (40° C./75% RH, 3 M): 0.24 mg KOH/gm | Triheptanoin purity (40° C./75% RH, 3 M): 99.82% | 1,2 Diester Impurity (NMT 0.05%) [6]: 0.006% | 1,3 Diester Impurity (NMT 0.05%) [6]: 0.005% | Acid value [6]: 0.23 mg KOH/gm | 1,2 Diester Impurity (NMT 0.05%) (40° C./75% RH, 6 M): 0.018% | 1,3 Diester Impurity (NMT 0.05%) (40° C./75% RH, 6 M): 0.015% | Acid value (40° C./75% RH, 6 M): 0.26 mg KOH/gm | Triheptanoin purity (40° C./75% RH, 6 M): 99.74% | 1,2 Diester Impurity (NMT 0.05%) [7]: 0.011% | 1,3 Diester Impurity (NMT 0.05%) [7]: 0.014% | Acid value [7]: 0.29 mg KOH/gm | Triheptanoin purity [7]: 99.81% | 1,2 Diester Impurity (NMT 0.05%) (50° C., 1 M): 0.008% | 1,3 Diester Impurity (NMT 0.05%) (50° C., 1 M): 0.005% | Acid value (50° C., 1 M): 0.24 mg KOH/gm | Triheptanoin purity (50° C., 1 M): 99.83% | 1,2 Diester Impurity (NMT 0.05%) [8]: 0.005% | 1,3 Diester Impurity (NMT 0.05%) [8]: 0.004% | Triheptanoin purity [8]: 99.81% | 1,2 Diester Impurity (NMT 0.05%) (50° C., 2 M): 0.014% | 1,3 Diester Impurity (NMT 0.05%) (50° C., 2 M): 0.010% | Acid value (50° C., 2 M): 0.24 mg KOH/gm | Triheptanoin purity (50° C., 2 M): 99.76% | 1,2 Diester Impurity (NMT 0.05%) [9]: 0.008% | 1,3 Diester Impurity (NMT 0.05%) [9]: 0.007% | Acid value [9]: 0.25 mg KOH/gm | Triheptanoin purity [9]: 99.78% | 1,2 Diester Impurity (NMT 0.05%) (50° C., 3 M): 0.014% | 1,3 Diester Impurity (NMT 0.05%) (50° C., 3 M): 0.012% | Acid value (50° C., 3 M): 0.25 mg KOH/gm | Triheptanoin purity (50° C., 3 M): 99.80% | 1,2 Diester Impurity (NMT 0.05%) [10]: 0.010% | 1,3 Diester Impurity (NMT 0.05%) [10]: 0.010% | Acid value [10]: 0.24 mg KOH/gm | Triheptanoin purity [10]: 99.83% | 1,2 Diester Impurity (NMT 0.05%) (Initial): 0.004% | 1,3 Diester Impurity (NMT 0.05%) (Initial): 0.002% | Acid value (Initial): 0.21 mg KOH/gm | Triheptanoin purity (Initial): 99.76% | 1,2 Diester Impurity (NMT 0.05%) (Initial, listed as Example 17): 0.003% | Triheptanoin purity (Initial, listed as Example 17): 99.77%
SMILES: CCCCCCC(=O)OCC(COC(=O)CCCCCC)OC(=O)CCCCCC [Example 16, heptanoic acid, 1,1′,1″-(1,2,3 propanetriyl) ester]

From US20250026708A1, “PROCESS FOR PREPARATION OF TRIHEPTANOIN” (Navinta, LLC, priority 2023, published 2025)
